Measurements: PMC6812009, “Covalent Aurora A regulation by the metabolic integrator coenzyme A” (Redox Biology, 2019)

Legend:
Assay in all cases: Kinase profiling screen (radioactive filter-binding assay)
Assay type in all cases: biochemical
[1] = biological target: PRK2 (Homo sapiens, UniProt Q16513); conditions: 100 μM compound, 5 μM ATP; read-out: Kinase activity, % of activity in the absence of inhibitor
Method in brief: (§1)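 Panel of 117 recombinant kinases; CoA, dpCoA, ADP each at 100 μM final, duplicates; model substrates, ATP at optimal level.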

[2] = biological target: Src (Homo sapiens, UniProt P12931); conditions: for activity at 100 µM: 100 μM compound, 50 μM ATP, read-out: Kinase activity, % of activity in the absence of inhibitor
Method in brief: as §1

[3] = biological target: JNK3 (Homo sapiens, UniProt P53779); conditions: 100 μM compound, 20 μM ATP; read-out: Kinase activity, % of activity in the absence of inhibitor
Method in brief: as §1

[4] = biological target: T1, ERK8 (Homo sapiens, UniProt Q8TD08); conditions: 100 μM compound, 5 μM ATP; read-out: Kinase activity, % of activity in the absence of inhibitor
T1 sequence (Q8TD08 1-544): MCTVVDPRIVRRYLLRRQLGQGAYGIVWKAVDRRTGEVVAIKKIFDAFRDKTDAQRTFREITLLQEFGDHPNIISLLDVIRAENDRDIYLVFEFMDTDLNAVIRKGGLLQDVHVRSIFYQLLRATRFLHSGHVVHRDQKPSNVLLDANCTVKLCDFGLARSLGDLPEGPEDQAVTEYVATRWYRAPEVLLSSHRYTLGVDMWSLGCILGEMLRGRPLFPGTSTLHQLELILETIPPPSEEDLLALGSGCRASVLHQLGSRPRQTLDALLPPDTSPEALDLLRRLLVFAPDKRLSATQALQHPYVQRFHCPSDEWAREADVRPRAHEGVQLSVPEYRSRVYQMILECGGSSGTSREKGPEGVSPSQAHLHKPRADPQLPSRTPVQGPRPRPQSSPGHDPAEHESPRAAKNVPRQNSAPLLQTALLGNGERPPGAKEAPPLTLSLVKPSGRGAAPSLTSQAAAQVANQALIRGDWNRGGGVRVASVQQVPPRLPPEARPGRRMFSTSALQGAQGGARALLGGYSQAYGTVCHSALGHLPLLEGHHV
Method in brief: as §1

[5] = biological target: SRPK1 (Homo sapiens, UniProt Q96SB4); conditions: 100 μM compound, 50 μM ATP; read-out: Kinase activity, % of activity in the absence of inhibitor
Method in brief: as §1

[6] = biological target: MNK2 (Homo sapiens, UniProt Q9HBH9); conditions: 100 μM compound, 50 μM ATP; read-out: Kinase activity, % of activity in the absence of inhibitor
Method in brief: as §1

[7] = biological target: T2, PKCζ (Homo sapiens, UniProt Q05513); conditions: 100 μM compound, 5 μM ATP; read-out: Kinase activity, % of activity in the absence of inhibitor
T2 sequence (Q05513 1-592): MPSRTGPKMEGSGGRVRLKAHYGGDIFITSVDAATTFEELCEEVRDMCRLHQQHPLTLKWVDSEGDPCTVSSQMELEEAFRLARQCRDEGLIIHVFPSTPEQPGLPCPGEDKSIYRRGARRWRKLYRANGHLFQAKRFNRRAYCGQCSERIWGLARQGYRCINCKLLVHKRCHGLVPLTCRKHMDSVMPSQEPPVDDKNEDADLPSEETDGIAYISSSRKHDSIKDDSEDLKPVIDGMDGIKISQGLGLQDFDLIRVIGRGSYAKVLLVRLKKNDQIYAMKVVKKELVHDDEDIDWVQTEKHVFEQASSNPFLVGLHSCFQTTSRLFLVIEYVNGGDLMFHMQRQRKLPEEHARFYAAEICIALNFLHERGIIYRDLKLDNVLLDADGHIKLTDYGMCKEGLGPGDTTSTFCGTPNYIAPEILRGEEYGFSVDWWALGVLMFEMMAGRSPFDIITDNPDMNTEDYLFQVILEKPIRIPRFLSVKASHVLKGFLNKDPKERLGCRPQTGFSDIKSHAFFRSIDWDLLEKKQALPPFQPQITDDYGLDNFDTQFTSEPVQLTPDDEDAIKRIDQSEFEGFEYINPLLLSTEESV
Method in brief: as §1

[8] = biological target: T3, IKKβ (Homo sapiens, UniProt O14920); conditions: 100 μM compound, 5 μM ATP; read-out: Kinase activity, % of activity in the absence of inhibitor
T3 sequence (O14920 1-756): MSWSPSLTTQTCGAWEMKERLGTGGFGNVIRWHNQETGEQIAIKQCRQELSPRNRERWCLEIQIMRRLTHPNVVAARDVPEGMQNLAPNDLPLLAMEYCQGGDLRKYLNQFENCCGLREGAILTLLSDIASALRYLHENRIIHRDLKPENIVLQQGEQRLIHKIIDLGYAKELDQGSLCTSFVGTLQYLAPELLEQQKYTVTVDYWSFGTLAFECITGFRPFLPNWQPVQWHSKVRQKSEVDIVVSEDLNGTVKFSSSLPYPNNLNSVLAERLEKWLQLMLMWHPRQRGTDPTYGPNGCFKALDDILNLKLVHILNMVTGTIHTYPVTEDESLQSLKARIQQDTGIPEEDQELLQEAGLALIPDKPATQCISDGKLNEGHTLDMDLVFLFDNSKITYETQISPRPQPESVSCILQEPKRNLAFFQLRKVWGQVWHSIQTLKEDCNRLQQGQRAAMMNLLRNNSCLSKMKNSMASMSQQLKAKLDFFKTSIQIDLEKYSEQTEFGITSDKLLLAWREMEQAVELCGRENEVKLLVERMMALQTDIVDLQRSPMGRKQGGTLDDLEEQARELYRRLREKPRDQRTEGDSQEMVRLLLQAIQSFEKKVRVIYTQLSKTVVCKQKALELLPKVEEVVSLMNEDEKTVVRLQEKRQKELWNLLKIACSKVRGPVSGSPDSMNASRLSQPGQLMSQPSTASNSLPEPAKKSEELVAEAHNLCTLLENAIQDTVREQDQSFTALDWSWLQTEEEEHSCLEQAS
Method in brief: as §1

[9] = biological target: CSK (Homo sapiens, UniProt P41240); conditions: 100 μM compound, 20 μM ATP; read-out: Kinase activity, % of activity in the absence of inhibitor
Method in brief: as §1

[10] = biological target: PIM2 (Homo sapiens, UniProt Q9P1W9); conditions: 100 μM compound, 5 μM ATP; read-out: Kinase activity, % of activity in the absence of inhibitor
Method in brief: as §1

[11] = biological target: MINK1 (Homo sapiens, UniProt Q8N4C8); conditions: 100 μM compound, 50 μM ATP; read-out: Kinase activity, % of activity in the absence of inhibitor
Method in brief: as §1

Sequence of PRK2 (Q16513 whole entry): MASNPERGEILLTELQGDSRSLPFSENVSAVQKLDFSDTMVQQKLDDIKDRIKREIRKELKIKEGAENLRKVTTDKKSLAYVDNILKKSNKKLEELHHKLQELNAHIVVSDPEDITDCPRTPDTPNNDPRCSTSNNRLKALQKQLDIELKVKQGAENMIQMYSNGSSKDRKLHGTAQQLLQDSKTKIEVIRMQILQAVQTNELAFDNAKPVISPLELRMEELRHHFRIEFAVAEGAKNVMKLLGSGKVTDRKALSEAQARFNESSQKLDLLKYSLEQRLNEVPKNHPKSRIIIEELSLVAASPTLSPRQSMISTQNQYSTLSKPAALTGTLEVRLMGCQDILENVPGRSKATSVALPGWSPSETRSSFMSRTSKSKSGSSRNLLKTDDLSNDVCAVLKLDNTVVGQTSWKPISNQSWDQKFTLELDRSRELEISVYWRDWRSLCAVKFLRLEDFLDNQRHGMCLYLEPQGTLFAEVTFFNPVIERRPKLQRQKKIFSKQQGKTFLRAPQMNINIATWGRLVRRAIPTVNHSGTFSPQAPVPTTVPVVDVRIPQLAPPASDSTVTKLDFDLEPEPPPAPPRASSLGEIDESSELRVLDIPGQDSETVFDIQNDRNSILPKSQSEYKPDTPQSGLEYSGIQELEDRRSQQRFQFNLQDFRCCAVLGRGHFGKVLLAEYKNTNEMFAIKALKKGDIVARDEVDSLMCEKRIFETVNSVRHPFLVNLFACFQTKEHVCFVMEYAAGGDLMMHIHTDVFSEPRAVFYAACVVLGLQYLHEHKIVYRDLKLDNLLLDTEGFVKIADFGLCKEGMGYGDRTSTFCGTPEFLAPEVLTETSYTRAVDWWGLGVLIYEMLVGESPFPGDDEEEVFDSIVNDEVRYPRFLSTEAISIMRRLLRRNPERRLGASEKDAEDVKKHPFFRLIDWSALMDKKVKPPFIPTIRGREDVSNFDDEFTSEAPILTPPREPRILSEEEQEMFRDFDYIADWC
Sequence of JNK3 (P53779 whole entry): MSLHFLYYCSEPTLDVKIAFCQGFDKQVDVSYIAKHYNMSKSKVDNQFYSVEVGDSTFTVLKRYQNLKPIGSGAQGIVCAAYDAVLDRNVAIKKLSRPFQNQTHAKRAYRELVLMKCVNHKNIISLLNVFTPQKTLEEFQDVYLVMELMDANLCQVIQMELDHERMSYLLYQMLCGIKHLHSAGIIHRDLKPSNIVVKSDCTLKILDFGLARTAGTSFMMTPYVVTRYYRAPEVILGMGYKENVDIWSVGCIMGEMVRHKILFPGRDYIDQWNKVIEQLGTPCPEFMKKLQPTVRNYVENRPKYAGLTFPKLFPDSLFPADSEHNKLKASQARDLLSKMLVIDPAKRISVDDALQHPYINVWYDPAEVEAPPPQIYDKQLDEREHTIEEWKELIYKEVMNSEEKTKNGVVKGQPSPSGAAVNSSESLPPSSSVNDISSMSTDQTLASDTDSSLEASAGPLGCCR
Sequence of SRPK1 (Q96SB4 whole entry): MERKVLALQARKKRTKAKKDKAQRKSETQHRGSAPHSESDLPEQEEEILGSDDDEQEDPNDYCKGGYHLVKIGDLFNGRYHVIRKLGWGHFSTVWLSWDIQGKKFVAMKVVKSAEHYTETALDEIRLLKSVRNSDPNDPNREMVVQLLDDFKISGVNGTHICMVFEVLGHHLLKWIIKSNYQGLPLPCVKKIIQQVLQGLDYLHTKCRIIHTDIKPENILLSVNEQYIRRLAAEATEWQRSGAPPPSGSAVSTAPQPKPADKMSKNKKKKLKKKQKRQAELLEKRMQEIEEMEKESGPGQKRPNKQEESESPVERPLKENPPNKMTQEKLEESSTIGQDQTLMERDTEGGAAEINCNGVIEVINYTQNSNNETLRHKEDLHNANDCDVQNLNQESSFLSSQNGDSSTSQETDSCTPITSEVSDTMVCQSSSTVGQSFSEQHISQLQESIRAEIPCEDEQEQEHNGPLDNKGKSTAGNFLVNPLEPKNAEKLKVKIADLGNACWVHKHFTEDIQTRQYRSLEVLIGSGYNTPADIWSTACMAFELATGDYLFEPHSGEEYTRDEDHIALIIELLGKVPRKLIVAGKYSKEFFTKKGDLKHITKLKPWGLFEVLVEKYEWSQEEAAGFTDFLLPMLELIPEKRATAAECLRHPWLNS
Sequence of PIM2 (Q9P1W9 whole entry): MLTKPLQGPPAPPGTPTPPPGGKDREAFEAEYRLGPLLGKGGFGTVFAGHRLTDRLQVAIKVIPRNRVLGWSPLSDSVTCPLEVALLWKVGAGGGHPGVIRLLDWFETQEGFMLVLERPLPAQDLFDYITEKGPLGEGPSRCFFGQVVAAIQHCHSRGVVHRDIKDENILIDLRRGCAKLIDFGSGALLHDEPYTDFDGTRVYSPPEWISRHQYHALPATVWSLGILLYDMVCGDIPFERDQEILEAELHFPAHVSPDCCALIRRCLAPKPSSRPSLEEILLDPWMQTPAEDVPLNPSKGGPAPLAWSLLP
Sequence of CSK (P41240 whole entry): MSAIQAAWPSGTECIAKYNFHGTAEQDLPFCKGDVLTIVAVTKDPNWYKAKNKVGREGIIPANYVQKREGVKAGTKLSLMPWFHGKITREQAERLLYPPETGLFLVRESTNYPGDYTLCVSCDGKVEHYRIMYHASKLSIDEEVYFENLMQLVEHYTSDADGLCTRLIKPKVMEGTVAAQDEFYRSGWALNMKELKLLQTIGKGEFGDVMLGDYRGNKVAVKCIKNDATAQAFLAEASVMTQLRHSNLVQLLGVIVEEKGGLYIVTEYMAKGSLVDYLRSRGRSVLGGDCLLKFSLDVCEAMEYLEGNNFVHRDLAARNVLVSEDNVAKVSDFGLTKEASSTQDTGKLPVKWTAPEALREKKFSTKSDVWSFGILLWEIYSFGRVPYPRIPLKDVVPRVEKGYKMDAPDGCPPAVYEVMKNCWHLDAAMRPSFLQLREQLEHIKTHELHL
Sequence of MINK1 (Q8N4C8 whole entry): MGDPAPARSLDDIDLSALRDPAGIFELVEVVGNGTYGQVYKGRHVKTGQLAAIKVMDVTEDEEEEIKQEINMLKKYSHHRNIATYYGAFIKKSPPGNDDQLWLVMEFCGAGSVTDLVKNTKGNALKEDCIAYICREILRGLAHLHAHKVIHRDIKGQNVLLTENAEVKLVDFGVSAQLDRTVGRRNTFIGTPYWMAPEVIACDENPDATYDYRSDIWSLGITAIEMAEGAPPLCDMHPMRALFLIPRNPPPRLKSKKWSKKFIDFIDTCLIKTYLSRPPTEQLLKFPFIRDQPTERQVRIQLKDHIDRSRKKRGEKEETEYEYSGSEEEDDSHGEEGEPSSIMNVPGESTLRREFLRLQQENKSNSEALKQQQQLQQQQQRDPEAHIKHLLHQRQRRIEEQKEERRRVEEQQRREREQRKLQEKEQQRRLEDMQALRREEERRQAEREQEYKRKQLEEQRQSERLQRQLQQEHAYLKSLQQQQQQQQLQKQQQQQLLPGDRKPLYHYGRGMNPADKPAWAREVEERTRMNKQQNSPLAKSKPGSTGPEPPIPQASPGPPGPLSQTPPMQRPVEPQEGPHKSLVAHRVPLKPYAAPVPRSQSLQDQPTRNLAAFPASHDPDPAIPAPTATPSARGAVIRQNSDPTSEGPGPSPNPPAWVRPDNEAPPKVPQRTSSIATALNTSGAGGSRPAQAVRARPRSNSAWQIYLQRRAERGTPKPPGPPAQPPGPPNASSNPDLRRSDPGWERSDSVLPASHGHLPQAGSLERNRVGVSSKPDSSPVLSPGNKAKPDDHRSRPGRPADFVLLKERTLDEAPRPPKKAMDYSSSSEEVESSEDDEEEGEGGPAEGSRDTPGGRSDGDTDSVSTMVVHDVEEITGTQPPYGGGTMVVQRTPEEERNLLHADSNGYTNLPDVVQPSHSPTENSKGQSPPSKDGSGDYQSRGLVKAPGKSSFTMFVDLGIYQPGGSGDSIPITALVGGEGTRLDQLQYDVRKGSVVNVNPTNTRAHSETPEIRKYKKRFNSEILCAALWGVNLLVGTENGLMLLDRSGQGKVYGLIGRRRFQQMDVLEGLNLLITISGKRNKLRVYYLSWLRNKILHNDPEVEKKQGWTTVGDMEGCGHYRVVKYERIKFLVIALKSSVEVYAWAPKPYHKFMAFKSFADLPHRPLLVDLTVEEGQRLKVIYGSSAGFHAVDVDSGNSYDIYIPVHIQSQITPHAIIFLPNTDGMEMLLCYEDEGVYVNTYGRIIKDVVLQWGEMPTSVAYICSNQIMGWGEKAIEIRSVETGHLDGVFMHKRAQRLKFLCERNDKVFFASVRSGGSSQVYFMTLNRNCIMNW
Sequence of Src (P12931 whole entry): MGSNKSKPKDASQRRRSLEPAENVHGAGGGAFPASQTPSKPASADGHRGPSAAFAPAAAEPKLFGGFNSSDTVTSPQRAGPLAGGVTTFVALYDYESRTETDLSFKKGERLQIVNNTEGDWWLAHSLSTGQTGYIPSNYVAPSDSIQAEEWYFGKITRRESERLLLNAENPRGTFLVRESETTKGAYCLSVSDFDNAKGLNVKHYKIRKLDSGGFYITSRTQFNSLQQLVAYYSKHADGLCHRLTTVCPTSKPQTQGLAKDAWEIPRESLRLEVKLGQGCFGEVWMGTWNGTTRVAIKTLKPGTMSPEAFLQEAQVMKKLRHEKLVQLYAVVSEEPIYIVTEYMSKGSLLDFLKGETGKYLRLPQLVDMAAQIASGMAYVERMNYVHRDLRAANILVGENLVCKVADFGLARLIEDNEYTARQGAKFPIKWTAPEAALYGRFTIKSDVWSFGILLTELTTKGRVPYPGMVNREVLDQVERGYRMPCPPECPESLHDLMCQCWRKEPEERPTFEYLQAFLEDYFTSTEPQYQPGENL

Which results are given for `Nc1ncnc2c1ncn2C1OC(COP(=O)(O)OP(=O)(O)O)C(O)C1O` (centres unmarked) [ADP]?
activity at 100 µM [1]: 20.8%; activity at 100 µM [2]: 31.8%; activity at 100 µM [3]: 58.6%; activity at 100 µM [4]: 16.6%; activity at 100 µM [5]: 60.9%; activity at 100 µM [6]: 41.2%; activity at 100 µM [7]: 37.7%; activity at 100 µM [8]: 26.6%; activity at 100 µM [9]: 18.5%; activity at 100 µM [10]: 9.8%; activity at 100 µM [11]: 49.4%

For `CC(C)(COP(=O)(O)OP(=O)(O)OCC1OC(n2cnc3c(N)ncnc32)C(O)C1O)C(O)C(=O)NCCC(=O)NCCS` (centres unmarked) [dpCoA, dephospho-CoA], which activity at 100 µM [1] is on record?
Its activity at 100 µM is 67.5%.

What about the activity at 100 µM [2] of the same compound?
The activity at 100 µM was 8.9%.

What about the activity at 100 µM [3] of the same compound?
The activity at 100 µM was 63.2%.

What about the activity at 100 µM [4] of the same compound?
The activity at 100 µM was 38.5%.

What about the activity at 100 µM [5] of the same compound?
The activity at 100 µM was 89.1%.

And the activity at 100 µM [6]?
The activity at 100 µM was 87.1%.

And the activity at 100 µM [7]?
Its activity at 100 µM is 89.9%.

And the activity at 100 µM [8]?
Its activity at 100 µM is 48%.

And the activity at 100 µM [9]?
Its activity at 100 µM is 54.9%.

What about the activity at 100 µM [10] of the same compound?
Its activity at 100 µM is 62.9%.

And the activity at 100 µM [11]?
The activity at 100 µM was 104%.

Which activity at 100 µM [1] does the source give for `CC(C)(COP(=O)(O)OP(=O)(O)OC[C@H]1O[C@@H](n2cnc3c(N)ncnc32)[C@H](O)[C@@H]1OP(=O)(O)O)[C@@H](O)C(=O)NCCC(=O)NCCS` [CoA, Coenzyme A] here?
Its activity at 100 µM is 71.3%.

What about the inhibition at 100 µM ([2]; 100 μM CoA, kinase profiling screen) of the same compound?
Its inhibition at 100 µM is no more than 50%.

And the activity at 100 µM [2]?
The activity at 100 µM was 43.8%.

And the “SRC inhibition (in words)” value ([2]; kinase profiling, 100 μM)?
Its value is “modestly inhibited”.

What about the activity at 100 µM [3] of the same compound?
The activity at 100 µM was 101%.

And the activity at 100 µM [4]?
Its activity at 100 µM is 101%.

And the activity at 100 µM [5]?
Its activity at 100 µM is 116%.

And the activity at 100 µM [6]?
Its activity at 100 µM is 138%.

And the activity at 100 µM [7]?
The activity at 100 µM was 99.3%.

What about the activity at 100 µM [8] of the same compound?
The activity at 100 µM was 90.5%.

And the activity at 100 µM [9]?
Its activity at 100 µM is 92.6%.

And the activity at 100 µM [10]?
Its activity at 100 µM is 111%.

What about the activity at 100 µM [11] of the same compound?
The activity at 100 µM was 106%.
